Several values for one entry are separate records, joined by “and”; a condition that tells them apart may be missing. Identical values can stand only once. Toxic doses and inconclusive results are not listed. Rule as the data show it: active = T/C of 150% or more; inactive = T/C below 125%.
Test system: L1210 leukemia ip in BDF1 mice, survival T/C
Test: NCI In Vivo Anticancer Drug Screen. Data for tumor model L1210 Leukemia (intraperitoneal) in B6D2F1 (BDF1) mice
Settings: endpoint: mean survival time, higher = longer survival
Outline: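 In this screen, tumor-bearing mice given compound are compared to those given vehicle, and their survival values are reported as a treated-to-control quotient.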

[1] = dose: 100.0 mg/kg/injection, schedule: Q01DX009 (ip), vehicle: Klucel (hydroxypropylcellulose) (HPC)
[2] = dose: 100.0 mg/kg/injection, schedule: Q04DX003 (ip), vehicle: Klucel (hydroxypropylcellulose) (HPC)
[3] = dose: 200.0 mg/kg/injection, schedule: Q01DX009 (ip), vehicle: Klucel (hydroxypropylcellulose) (HPC)
[4] = dose: 200.0 mg/kg/injection, schedule: Q04DX003 (ip), vehicle: Klucel (hydroxypropylcellulose) (HPC)
[5] = dose: 400.0 mg/kg/injection, schedule: Q01DX009 (ip), vehicle: Klucel (hydroxypropylcellulose) (HPC)
[6] = dose: 400.0 mg/kg/injection, schedule: Q04DX003 (ip), vehicle: Klucel (hydroxypropylcellulose) (HPC)
[7] = dose: 100.0 mg/kg/injection, schedule: Q01DX001 (ip), vehicle: saline
[8] = dose: 200.0 mg/kg/injection, schedule: Q01DX001 (ip), vehicle: saline
[9] = dose: 400.0 mg/kg/injection, schedule: Q01DX001 (ip), vehicle: saline
[10] = dose: 100.0 mg/kg/injection, schedule: Q04DX003 (ip), vehicle: saline with Tween-80
[11] = dose: 200.0 mg/kg/injection, schedule: Q04DX003 (ip), vehicle: saline with Tween-80
[12] = dose: 400.0 mg/kg/injection, schedule: Q04DX003 (ip), vehicle: saline with Tween-80
[13] = dose: 100.0 mg/kg/injection, schedule: Q01DX009 (ip), vehicle: saline with Tween-80
[14] = dose: 200.0 mg/kg/injection, schedule: Q01DX009 (ip), vehicle: saline with Tween-80

Measured: T/C

O=C(Nc1cc(Cl)ccc1Cl)c1ccccc1Cl
inactive: [1] 94 % of control | [2] 102 % of control | [3] 87 % of control | [4] 97 % of control | [5] 92 % of control | [6] 91 % of control

C=CNC(=O)C(c1ccccc1)N1CCCCC1 (stereo not given)
inactive: dose: 100.0 mg/kg/injection, schedule: Q01DX001 (ip), vehicle: Klucel (hydroxypropylcellulose) (HPC) 102 % of control | dose: 200.0 mg/kg/injection, schedule: Q01DX001 (ip), vehicle: Klucel (hydroxypropylcellulose) (HPC) 97 % of control | dose: 400.0 mg/kg/injection, schedule: Q01DX001 (ip), vehicle: Klucel (hydroxypropylcellulose) (HPC) 103 % of control

Cc1ccc(S(=O)(=O)NC(=O)NCc2cccc(Cl)c2)cc1
inactive: [1] 101 % of control | [3] 101 % of control | [5] 96 % of control

CCN1C(=O)CC(=O)N(CC)C1=S
inactive: dose: 50.0 mg/kg/injection, schedule: Q01DX009 (ip), vehicle: Klucel (hydroxypropylcellulose) (HPC) 103 % of control | [1] 101 % of control | [2] 94 % of control | [3] 97 % of control | [4] 89 % of control

CCCC/C(I)=C\S(=O)(=O)c1ccc(C)cc1
inactive: [7] 113 % of control | [8] 86 % of control | [9] 96 % of control

BrC(Br)c1ccc(C(Br)Br)cc1
inactive: [10] 94 % of control | [11] 100 % of control | [12] 94 % of control

CCCc1ccccc1NC(=O)NCCCl
inactive: dose: 25.0 mg/kg/injection, schedule: Q04DX003 (ip), vehicle: Klucel (hydroxypropylcellulose) (HPC) 106 % of control | dose: 50.0 mg/kg/injection, schedule: Q04DX003 (ip), vehicle: Klucel (hydroxypropylcellulose) (HPC) 101 % of control | [2] 105 % of control and 86 % of control | [4] 89 % of control | [6] 88 % of control

[N-]=[N+]=NC(=O)C1C(c2ccccc2)=C1c1ccccc1
inactive: dose: 100.0 mg/kg/injection, schedule: Q01DX001 (ip), vehicle: steriod suspending solution 93 % of control | dose: 200.0 mg/kg/injection, schedule: Q01DX001 (ip), vehicle: steriod suspending solution 106 % of control | dose: 400.0 mg/kg/injection, schedule: Q01DX001 (ip), vehicle: steriod suspending solution 98 % of control

O=C1C=CC(=O)C(SCCC(=O)O)=C1
inactive: dose: 50.0 mg/kg/injection, schedule: Q01DX009 (ip), vehicle: saline with Tween-80 102 % of control | dose: 100.0 mg/kg/injection, schedule: Q01DX001 (ip), vehicle: carboxymethylcellulose (CMC) 101 % of control | [13] 97 % of control | [14] 96 % of control

O=C(Nc1ccccc1)Nc1ccc(C(=O)CCl)cc1
inactive: dose: 100.0 mg/kg/injection, schedule: Q01DX005 (ip), vehicle: saline with Tween-80 96 % of control | [10] 102 % of control | dose: 200.0 mg/kg/injection, schedule: Q01DX005 (ip), vehicle: saline with Tween-80 110 % of control | [11] 112 % of control | dose: 400.0 mg/kg/injection, schedule: Q01DX005 (ip), vehicle: saline with Tween-80 92 % of control | [12] 100 % of control

CC(Cl)CN(CC(C)Cl)c1ccc(S(=O)(=O)Nc2ncccn2)cc1 (stereo not given)
inactive: dose: 5.0 mg/kg/injection, schedule: Q01DX009 (ip), vehicle: gum acacia 107 % of control | dose: 5.0 mg/kg/injection, schedule: Q01DX009 (ip), vehicle: saline 104 % of control | dose: 8.0 mg/kg/injection, schedule: Q01DX009 (ip), vehicle: gum acacia 100 % of control | dose: 10.0 mg/kg/injection, schedule: Q01DX009 (ip), vehicle: saline 98 % of control | dose: 12.0 mg/kg/injection, schedule: Q01DX009 (ip), vehicle: gum acacia 96 % of control | dose: 20.0 mg/kg/injection, schedule: Q01DX009 (ip), vehicle: saline 105 % of control | dose: 30.0 mg/kg/injection, schedule: Q01DX009 (ip), vehicle: saline 111 % of control | dose: 45.0 mg/kg/injection, schedule: Q01DX009 (ip), vehicle: saline 114 % of control and 117 % of control | dose: 80.0 mg/kg/injection, schedule: Q01DX009 (ip), vehicle: other 122 % of control | dose: 80.0 mg/kg/injection, schedule: Q01DX009 (ip), vehicle: saline with Tween-80 123 % of control | dose: 80.0 mg/kg/injection, schedule: Q01DX009 (ip), vehicle: saline 106 % of control and 108 % of control | dose: 90.0 mg/kg/injection, schedule: Q01DX009 (ip), vehicle: saline 120 % of control | dose: 120.0 mg/kg/injection, schedule: Q01DX009 (ip), vehicle: other 121 % of control | dose: 120.0 mg/kg/injection, schedule: Q01DX009 (ip), vehicle: saline 111 % of control | dose: 180.0 mg/kg/injection, schedule: Q01DX009 (ip), vehicle: other 98 % of control

O=C(Nc1cccc(C(=O)O)c1)Nc1ccc(Cl)c(C(F)(F)F)c1
inactive: [13] 87 % of control | [14] 100 % of control

C1CC2CC2CCC2CC12 (stereo not given)
inactive: [1] 104 % of control | [2] 101 % of control | [3] 95 % of control | [4] 95 % of control | [5] 102 % of control | [6] 101 % of control

COCCCNc1ncnc2[nH]ncc12
inactive: dose: 15.0 mg/kg/injection, schedule: Q01DX015 (ip), vehicle: saline 95 % of control | dose: 30.0 mg/kg/injection, schedule: Q01DX015 (ip), vehicle: saline 101 % of control | dose: 50.0 mg/kg/injection, schedule: Q04DX003 (ip), vehicle: saline 96 % of control | dose: 60.0 mg/kg/injection, schedule: Q01DX015 (ip), vehicle: saline 97 % of control | [7] 106 % of control | dose: 100.0 mg/kg/injection, schedule: Q04DX003 (ip), vehicle: saline 98 % of control | dose: 120.0 mg/kg/injection, schedule: Q01DX015 (ip), vehicle: saline 110 % of control | [8] 106 % of control | dose: 200.0 mg/kg/injection, schedule: Q04DX003 (ip), vehicle: saline 100 % of control | [9] 116 % of control

CCC(=O)NC1Cc2cc(C)cc(C)c21 (stereo not given)
inactive: dose: 25.0 mg/kg/injection, schedule: Q04DX002 (ip), vehicle: Klucel (hydroxypropylcellulose) (HPC) 113 % of control | dose: 50.0 mg/kg/injection, schedule: Q04DX002 (ip), vehicle: Klucel (hydroxypropylcellulose) (HPC) 92 % of control | dose: 100.0 mg/kg/injection, schedule: Q04DX002 (ip), vehicle: Klucel (hydroxypropylcellulose) (HPC) 100 % of control

NC(CCCNc1nc(O)c(-c2ccccc2)c(=O)[nH]1)C(=O)O (stereo not given)
inactive: dose: 75.0 mg/kg/injection, schedule: Q01DX001 (ip), vehicle: saline 104 % of control | dose: 150.0 mg/kg/injection, schedule: Q01DX001 (ip), vehicle: saline 102 % of control | dose: 300.0 mg/kg/injection, schedule: Q01DX001 (ip), vehicle: saline 102 % of control
